Data published in patent publication US5733569A, “Galenic compositions comprising calcitonin and their use” (Novartis Corporation, priority 1982, dated 1998).

Columns and labels:
Pen. steckii = assay: preservative activity against test fungus in calcitonin nasal composition; settings: chlorbutanol at 0.6% in calcitonin nasal pharmaceutical compositions
Source text: Very many well-known preserving agents present themselves for possible use in calcitonin pharmaceutical compositions. However experiment has shown that not all are suitable for practical use in relation to a calcitonin nasal spray.

[1] = tested on: ciliary beating frequency of rat trachea; assay: ciliary beating frequency, microphoto-oscillographic method of L. Chevance et al; settings: at 0.6%, within 20 minutes
Description: 70, […] (1970). These are just some of the disadvantageous effects that can be encountered.
Moreover the compositions are well tolerated as indicated in standard tests, e.g. in that less than 50% inhibition of ciliary beating frequency is observed up to 20 minutes after administration, according to the microphoto-oscillographic method of L. Chevance et al, Acta Otolaryng. 70, 26-28 (1970).

[2] = relative bio-availability study nasal administration/intra-muscular injection of salmon calcitonin in healthy volunteers; format: in vivo; settings: for time serum levels remain above the detectability limit: detectability limit 26 pg/ml
Description: The study is conducted with 12 healthy volunteers, 6 male and 6 female, with a body weight of from 50 to 85 kg. Each subject receives 4 administrations of salmon calcitonin, one intra-muscularly and 3 nasally. Administration is effected at the following dosages:
B. Intra-muscular: 50 MRC units.
Nasal administration is effected using composition in accordance with example 1 and a spray-applicator delivering 55 MRC units per individual spray dosage. For the purposes of administration the subject is laid on the back with the head tilted backwards for 5 minutes. The nostrils are cleaned by blowing of the nose immediately prior to administration.
Intra-muscular administration is effected by injection of a single 1 ml dose of a composition similar to that of example 1, but omitting benzalkonium chloride and containing 50 MRC units into the glutaeus medius muscle.
Each subject receives the 4 administrations in randomized sequence, and at least 3 days are allowed between consecutive administrations. Each administration is effected in the morning after a light breakfast from which milk, butter and cheese is excluded. 100 ml water or orange juice is taken hourly following treatment to maintain urinary output. Further food is allowed not earlier than 4 hours after treatment.
Blood samples are taken immediately prior to administration (control), and at intervals of 5, 15, 30, 60, 90, 120, 180, 240, 360 and 480 minutes following administration. For the control a 20 ml sample is taken. All subsequent samples are 2 ml samples.
The concentration of salmon calcitonin in each serum sample is measured by radio-immuno-assay. Blood-pressure is controlled during the course of the trial and urine-samples tested for possible adverse reaction. Occurrence of side-effects, e.g. symptoms of nausea, is noted.
The AUC ("area under curve") for salmon calcitonin plasma concentration is calculated statistically, once employing all value, including those below the 26 pg/ml detectability limit, once with values below the detectability limit read as zero. Maximal plasma concentration and time at which this is reached are also determined. Relative bio-availability for nasal administration is determined from the relative dosage-standardized AUC (i.e. based on 50 MRC units) following nasal and intra-muscular administration.

SMILES	time required to reduce the cell count to less than 0.1% (Pen. steckii)	inhibition of the ciliary beating frequency [1]	AUC values compared with 50 MRC units i.m. ([2]; 110 MRC units intra-nasally)	AUC values compared with 50 MRC units i.m. ([2]; 220 MRC units intra-nasally)	F rel ([2]; both sexes, plasma, inhaled or intranasal, nasal vs intra-muscular, human, read-out: bio-availability (blood-plasma concentration) following nasal administration relative to levels achieved on intra-muscular injection) [%]	time serum levels remain above the detectability limit ([2]; i.m. application of 50 MRC units) [h]	time serum levels remain above the detectability limit ([2]; nasal application of 110 MRC units) [h]	adverse side-effects following nasal administrations ([2]; nasal, up to the highest dosage of 220 MRC units)
CC(C)(O)C(Cl)(Cl)Cl [chlorbutanol]	more than 3 days	more than 50%						
CC(C)C[C@H](NC(=O)[C@H](CCCCN)NC(=O)CNC(=O)[C@H](CC(C)C)NC(=O)[C@@H](NC(=O)[C@@H]1CSSC[C@H](N)C(=O)N[C@@H](CO)C(=O)N[C@@H](CC(N)=O)C(=O)N[C@@H](CC(C)C)C(=O)N[C@@H](CO)C(=O)N[C@@H]([C@@H](C)O)C(=O)N1)C(C)C)C(=O)N[C@@H](CO)C(=O)N[C@@H](CCC(N)=O)C(=O)N[C@@H](CCC(=O)O)C(=O)N[C@@H](CC(C)C)C(=O)N[C@@H](Cc1c[nH]cn1)C(=O)N[C@@H](CCCCN)C(=O)N[C@@H](CC(C)C)C(=O)N[C@@H](CCC(N)=O)C(=O)N[C@H](C(=O)N[C@@H](Cc1ccc(O)cc1)C(=O)N1CCC[C@H]1C(=O)N[C@@H](CCCNC(=N)N)C(=O)N[C@H](C(=O)N[C@@H](CC(N)=O)C(=O)N[C@H](C(=O)NCC(=O)N[C@@H](CO)C(=O)NCC(=O)N[C@H](C(=O)N1CCC[C@H]1C(N)=O)[C@@H](C)O)[C@@H](C)O)[C@@H](C)O)[C@@H](C)O [salmon calcitonin]			comparable	comparable	~50	6	8	No adverse side-effects
